In patent publication US6919365B2, “Imidazolidinedione derivatives and use thereof as drugs” (Senju Pharmaceutical Co., Ltd., priority 2001, dated 2005):

Columns and labels:
human lung tryptase = test: Tryptase inhibition activity (fluorogenic substrate Boc-Val-Pro-Arg-MCA); format: biochemical; details: pH7.1, 30° C., 30 minutes
Description: Then, the tryptase inhibition activity was measured according to the method of Muramatsu et al. (Biol. Chem. Hoppe-Seyler, vol.369, pp617(1988)). That is, 62.5 μL of a solution adjusted so that the enzyme activity of human lung tryptase (manufactured by Sigma) became 7.9 μUnit with 0.1M phosphate buffer-1.5M NaCl (pH7.1), was added to 2.5 μL of a test substance dissolved in DMSO, a temperature was retained at 30° C. for 5 minutes, and 125 μL of 0.6mM Boc-Val-Pro-Arg-MCA. HCl (manufactured by BACHEM)/0.1M phosphate buffer (pH7.1) as a substrate was added to obtain a reaction solution. The reaction solution was set at a multi-well plate reader CYTOFLUOR Series 4000 (manufactured by Perceptive Biosystems), and a change in the fluorescent intensity was measured at 30° C. for 30 minutes with time (excitation wavelength 360 nm, detection wavelength 450 nm). As a control, 2.5 μL of DMSO containing no test substance was used, and treated and measured similarly. As a blank, 0.1M phosphate buffer-1.5M NaCl (pH7.1) was added in place of a tryptase solution, and treated and measured similarly.
A tryptase inhibition rate (%) was obtained by calculating a slope (S) of an approximation straight line for each test material, a slope (C) of an approximation straight line for a control, a slope (Bs) of an approximation straight line for a blank of each test substance, and a slope (Bc) of an approximation straight line for a blank of a control from a change in the fluorescent intensity, and calculating from the following equation. Inhibition rate (%)=[1−(S−Bs)/(C−Bc)]×100 Experimental Results
(§1) Regarding the compounds of the present invention, each 50% inhibition concentration (IC50) was calculated from the chymase and tryptase inhibition activity obtained by the aforementioned method.

[1] = target: T1, recombinant human chymase (Homo sapiens, UniProt P23946); test: Chymase inhibition activity (fluorogenic substrate Suc-Ala-Ala-Pro-Phe-MCA); format: biochemical; details: 30° C., 30 minutes
T1 sequence (P23946 22-247): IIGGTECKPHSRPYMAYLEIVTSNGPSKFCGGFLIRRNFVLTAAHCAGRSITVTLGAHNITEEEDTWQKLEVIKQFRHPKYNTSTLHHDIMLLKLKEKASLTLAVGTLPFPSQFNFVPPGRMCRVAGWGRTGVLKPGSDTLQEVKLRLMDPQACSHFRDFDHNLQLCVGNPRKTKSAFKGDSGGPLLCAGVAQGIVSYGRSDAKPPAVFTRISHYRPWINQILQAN
Description: The chymase inhibition activity was measured according to the method of Kato et al. (J. Biochem., Vol.103, pp820(1988)). That is, 72.5 μL of a solution adjusted so that the enzyme activity of recombinant human chymase (JP-A No.10-87567) became 2.3 μUnit with HEPES buffer, was added to 2.5 μL of a test substance dissolved in dimethyl sulfoxide (DMSO), a temperature was retained at 30° C. for 5 minutes, and 125 μL of 0.6 mM Suc-Ala-Ala-Pro-Phe-MCA (manufactured by Peptide Institute Inc.)/Tris buffer as a substrate was added to obtain a reaction solution. The reaction solution was set at a multi-well plate reader CYTOFLUOR Series 4000 (manufactured by Perceptive Biosystems), and a change in the fluorescent intensity was measured at 30° C. for 30 minutes with time (excitation wavelength 360 nm, detection wavelength 450 nm).
As a control, 2.5 μL of DMSO containing no test substance was used, and this was treated and measured similarly. As a blank, a Tris hydrochloric acid buffer was added instead of a chymase solution, and treated and measured similarly.
The chymase inhibition rate (%) was obtained by calculating a slope (S) of an approximation straight line for each test substance, a slope (C) of an approximation straight line for a control, a slope (Bs) of an approximation straight line for a blank of each test substance, and a slope (Bc) of approximation straight line for a blank of a control from a change in the fluorescent intensity, and calculating from the following equation. Inhibition rate (%)=[1−(S−Bs)/(C−Bc)]×100
as §1

[2] = tested on: rat mast cells (intraperitoneal cell suspension, PEC); test: Rat mast cell histamine release inhibition test; format: cell-based; details: for Inhibition rate (%) of release of histamine from mast cells: phosphatidylserine and concanavalin A stimulated
Description: A rat was killed by exsanguinations under ether anesthesia, and 30 mL of a buffer for mast cells (150 mM NaCl, 3.7 mM KCl, 3.0 mM Na2HPO4, 1 mM CaCl2, 5.6 mM glucose) was injected intraperitoneally. An abdominal part was massaged for 90 seconds, and a suspension of intraperitoneal cell was taken. A suspension of an intraperitoneal cell collected from 5 animals was centrifuged at 100 G at 4° C. for 5 minutes, a buffer for mast cells was added, washed three times and, finally, adjusted so that the number of mast cells became 3 to 5×10^5 cells/mL (hereinafter, this solution is abbreviated as PEC).
Compound 5 was dissolved in DMSO to prepare a test drug solution at each concentration (final DMSO concentration 0.8%). 100 μL of the test drug solution was added to 400 μL of the prepared PEC, and pre-incubated at 37° C. for 15 minutes. After pre-incubation, each 50 μL of a solution of phosphatidylserine (10 μg/ml) and concanavalin A(15 μg/ml) which is a histamine-releasing substance was added, and further incubated for 20 minutes. 1.4 mL of an ice-cooled buffer for mast cells was added to stop the reaction, and centrifuged at 250 G at 4° C. for 10 minutes. An amount of the histamine supernatant was quantitated using a fluorescent method. That is, 20 μL of 1N NaOH was added to 40 μL of the supernatant, 20 μL of a 1% o-phthalaldehyde solution in methanol was further added, and allowed to stand at room temperature for 5 minutes. Thereafter, 20 μL of 3N hydrochloric acid was added, and the fluorescent intensity was measured at an excitation wavelength of 350 nm and a fluorescent wavelength of 450 nm to obtain an amount of histamine.
A histamine release inhibition rate (%) was calculated from the following equation: Inhibition rate (%)=[1−(S−B)/(C−B)]×100 • S: amount of histamine in the supernatant, C: amount of histamine in control, B: amount of histamine in blank Test Results

1-(3-Chlorobenzyl)-5,5-dimethyl-3-naphthylcarbonylimidazolidine-2,4-dione [Compound 28]
IC50 (human lung tryptase): 2200 nM
IC50 [1]: 2200 nM

1-Isobutyl-3-naphthylcarbonyl-5,5-diphenylimidazolidine -2,4-dione [Compound 23]
IC50 (human lung tryptase): 4400 nM
IC50 [1]: 280 nM

1-Methyl-3-naphthylcarbonyl-5,5-diphenylimidazolidine-2,4-dione [Compound 22]
IC50 (human lung tryptase): 89 nM
IC50 [1]: 3500 nM

3-Naphthylcarbonyl-1,3-diazaspiro[4.5]decane-2,4-dione [Compound 34]
IC50 (human lung tryptase): 280 nM
IC50 [1]: 32000 nM

3-Naphthylcarbonyl-2,4-dioxo-5,5-diphenylimidazolidinylacetic acid [Compound 5]
IC50 (human lung tryptase): 970 nM
IC50 [1]: 1200 nM
Inhibition of release of histamine (in words) ([2]; 8 to 100 μM): inhibited release of histamine concentration-dependently
Inhibition rate (%) of release of histamine from mast cells ([2]; test drug concentration 8 μM): 28%
Inhibition rate (%) of release of histamine from mast cells ([2]; test drug concentration 40 μM): 59%
Inhibition rate (%) of release of histamine from mast cells ([2]; test drug concentration 80 μM): 78%
Inhibition rate (%) of release of histamine from mast cells ([2]; test drug concentration 100 μM): 83%

3-Naphthylcarbonyl-5,5-diphenylimidazolidine-2,4-dione [Compound 2]
IC50 (human lung tryptase): 46 nM
IC50 [1]: 340 nM

4-(5,5-Dimethyl-3-naphthylcarbonyl-2,4-dioxoimidazolidinylmethyl)benzonitrile [Compound 27]
IC50 (human lung tryptase): 7100 nM
IC50 [1]: 540 nM

5,5- Dimethyl-3-naphthylcarbonylimidazolidine-2,4-dione [Compound 8]
IC50 (human lung tryptase): 3200 nM
IC50 [1]: 30000 nM

5,5-Dimethyl-1,3-bisnaphthylcarbonyl imidazolidine-2,4-dione [Compound 33]
IC50 (human lung tryptase): 1500 nM
IC50 [1]: 1800 nM

5,5-Dimethyl-3-naphthylcarbonyl-1,3-oxazolidine-2,4-dione [Compound 9]
IC50 (human lung tryptase): 1000 nM
IC50 [1]: 730 nM

5,5-Dimethyl-3-naphthylcarbonyl-1-(2-oxo-2-phenylethyl)imidazolidine-2,4-dione [Compound 30]
IC50 (human lung tryptase): 7200 nM
IC50 [1]: 3300 nM

5-Methyl-3-naphthylcarbonyl-2,4-dioxo-5-phenylimidazolidinylacetic acid [Compound 16]
IC50 (human lung tryptase): 1800 nM
IC50 [1]: 910 nM

O=C1NC(c2ccccc2)(c2ccccc2)C(=O)N1C(=O)c1ccc2ccccc2c1 [Compound 1, 3-(2-Naphthylcarbonyl)-5,5-diphenylimidazolidine-2,4-dione]
IC50 (human lung tryptase): 390 nM
IC50 [1]: 66 nM

CC1(c2ccccc2)NC(=O)N(C(=O)c2cccc3ccccc23)C1=O (centres unmarked) [Compound 7]
IC50 (human lung tryptase): 370 nM
IC50 [1]: 6500 nM

CC1(c2ccccc2)C(=O)N(C(=O)c2cccc3ccccc23)C(=O)N1Cc1cccc(Cl)c1 (centres unmarked) [Compound 25, 1-(3-Chlorobenzyl)-5-methyl-3-naphthylcarbonyl-5-phenylimidazolidine-2,4-dione]
IC50 (human lung tryptase): 86000 nM
IC50 [1]: 580 nM

Ethyl 2-(3-naphthylcarbonyl-2,4-dioxo-5,5-diphenylimidazolidinyl)acetate [Compound 3]
IC50 (human lung tryptase): 930 nM
IC50 [1]: 1000 nM

Tert-butyl (5,5-dimethyl-3-naphthylcarbonyl-2,4-dioxoimidazolidinyl)acetate [Compound 13]
IC50 (human lung tryptase): 1600 nM
IC50 [1]: 2700 nM

tert-Butyl (5-methyl-3-naphthylcarbonyl-2,4-dioxo-5-phenylimidazolidinyl)acetate [Compound 14]
IC50 (human lung tryptase): 1600 nM
IC50 [1]: 260 nM
